Experimental data from patent US20170328922A1, “METHODS AND PRODUCTS FOR LABELLING LIPIDS” (UNIVERSITY OF SOUTH AUSTRALIA, priority 2014, published 2017).

Legend:
[1] = system: Drosophila fat body tissue; assay: Live staining and confocal imaging of explanted fat body tissue; format: cell-based; details: fixed fat body, nutrient deprivation/starvation conditions
Protocol: All stocks were maintained in standard medium at 25° C. The yeast GAL4-UAS system was used for targeted gene expression (Brand and Perrimon, 1993). Fat-body specific expression of transgenes from the UAS were driven by CG-GAL4 (Asha et al., 2003). Transgenic UAS-Atg9RNAi stocks (#34901) and UAS-TorTED stocks (#7013) were obtained from the Bloomington Drosophila Stock Centre (Indiana University, IN, USA). Atg8aGFP was driven by an endogenous promoter (Kelso et al., 2004).
Bromophenol-blue was added to the fly media and used to define different developmental time points. […] Newly formed white pupae (0 h PF), were isolated onto moist filter paper and incubated at 25° C. for either two hours (+2 h PF) or four hours (+4 h PF).
Third instar larvae at −8 h PF were removed from standard media (normally feeding at this developmental stage) and placed on filter paper either soaked in 5% (w/v) sucrose (for amino acid deprivation), or 5% (w/v) tryptone pancreatic digest of casein (BD Bioscience USA; for carbohydrate deprivation), or soaked in water (for complete starvation). Larvae were incubated for 4-5 hours prior tissue isolation and imaging.
Fat body tissue was dissected into PBS from Drosophila larvae or pupae. The fat body tissue was either incubated with 10 μM tricarbonyl phenanthrolin (4-cyanophenyltretrazolato) Rhenium (I) in PBS for 15 minutes at room temperature, or LysoTracker® green (according to manufacturer instructions; Invitrogen, USA) and then mounted in carbomer-940 (Snowdrift farm, Tucson, USA) based optical coupling gel to prevent dehydration prior to imaging (Rothstein et al., 2006). For Oil Red O staining, fat body tissue was fixed in 4% (v/v) paraformaldehyde for 20 minutes, and incubated in 1/100 Oil Red 0 for 30 minutes and then washed in PBS before mounting in 80% glycerol.
A Ziess LSM710 META NLO confocal microscope (Zeiss, Germany), supplemented with a two-photon Mai-Tai® (tunable Ti:Sapphire femtosecond pulse laser, 710-920 nm, Spectra-Physics, Australia) was used for imaging. The images were acquired using a Plan-APOCHROMAT 63×/NA1.4 oil immersion objective. The Rhenium probe was excited at 830 nm using the two-photon pulse laser and detect at 600-654 nm. LysoTracker® green was imaged by excitation at 488 nm and detected at 497-558 nm. Atg8a-GFP was imaged with the Rhenium probe by excitation at 830 nm and resolved using spectral un-mixing using the Zen software package (based on spectral figure-printing of the two components). The Rhenium probe images and co-location analysis involved at least five separate images from five independent biological replicates, and one representative image from each treatment was selected for presentation (containing a minimum of 2 cells). For image quantification, two regions of interest (ROI) were selected at random with an area of 2500 μm^2 and the number of fluorescent puncta within the area counted, to give a minimum of 10 counts per treatment group. Comparison of means was performed by ANOVA with a Tukey post hoc tested in GraphPad Prism V.6.01 (USA).

[2] = Rhenium molecular probe-lipid overlay (dot blot); format: binding; set-up: key to interaction with Sphingomyline (dot blot): ✓ indicates a positive interaction; x indicates no interaction; details: for interaction with Sphingomyline (dot blot): 10 μM probe, 50 μM lipid on PVDF membrane; for affinity towards sphingomyelin, in words: FIG. 7 / FIG. 8
Protocol: (§1) The experimental protocol probe-lipid overlay was as follows: 50 μM of each lipids was loaded on to PVDF membranes (Perkin Elmer, USA), which were then incubated with molecular probes. PhenCyano and PhenPyridyl were assessed against eleven lipids including; sphingomyelin (Cat # S0756, Sigma Aldrich, USA), sphingosine (Cat # S7049; Sigma Aldrich, USA), L-phosphatidylethanolamine (Cat # P7943, Sigma Aldrich, USA), monosialodanglioside (GM1; Cat # G7641, Sigma Aldrich, USA), oleoly-L-?-lysophosphatidic acid (Cat # L7260, Sigma Aldrich, USA), palmitic acid (Cat # P5917, Sigma Aldrich, USA), sphingomyelin (Cat # S0756, Sigma Aldrich, USA), sphingosine (Cat # S7049; Sigma Aldrich, USA), L-?-phosphatidylethanolamine (Cat # P7943, Sigma Aldrich, USA), monosialodanglioside (GM1; Cat # G7641, Sigma Aldrich, USA), progesterone (Cat #102722, MP Biomedical, USA), ceramide (Cat # C2137; Sigma Aldrich, USA), triacylglycerol mix C2-C10 (Cat #17810, Sigma Aldrich, USA) and cholesteryl acetate (Cat #151114; Sigma Aldrich, USA).
(§2) All other molecular probes were assessed against a panel of six lipids including; sphingomyelin (Cat # S0756, Sigma Aldrich, USA), sphingosine (Cat # S7049; Sigma Aldrich, USA), L-?-phosphatidylethanolamine (Cat # P7943, Sigma Aldrich, USA), monosialodanglioside (GM1; Cat # G7641, Sigma Aldrich, USA), sphingomyelin (Cat # S0756, Sigma Aldrich, USA), sphingosine (Cat # S7049; Sigma Aldrich, USA), L-?-phosphatidylethanolamine (Cat # P7943, Sigma Aldrich, USA), monosialodanglioside (GM1; Cat # G7641, Sigma Aldrich, USA) and triacylglycerol mix C2-C10 (Cat #17810, Sigma Aldrich, USA).
(§3) Lipids were dissolved in ethanol, methanol or isopropanol for loading depending on solubility. Following lipid loading, membranes were left to dry for 20-30 minutes, then they were washed for 10 minutes in cold 10% ethanol, before they were incubated with 10 μM solution of each Rhenium molecular probe in cold 10% ethanol for one hour. Membranes were than washed four times for 10 minutes in cold 10% ethanol prior to imaging. Imaging was performed on an Image Quant Las 4000 (GE, Sweden) luminescent image analyser, with the Rhenium molecular probe being detected by excitation at 460 nm using an epi-blue light source, and detected using an 575 nm ethidium bromide filter.

[3] = Rhenium molecular probe-lipid overlay (dot blot); format: binding; set-up: key to interaction with Sphingosine (dot blot): ✓ indicates a positive interaction; x indicates no interaction; details: for interaction with Sphingosine (dot blot): 10 μM probe, 50 μM lipid on PVDF membrane; for affinity towards sphingosine, in words: FIG. 7 / FIG. 8
Protocol: as §1, §2, §3

[4] = Rhenium molecular probe-lipid overlay (dot blot); format: binding; set-up: key to interaction with GM1 (dot blot): ✓ indicates a positive interaction; x indicates no interaction; details: for interaction with GM1 (dot blot): 10 μM probe, 50 μM lipid on PVDF membrane; for affinity towards monosialotetrahexosylganglioside (GM1), in words: FIG. 7 / FIG. 8
Protocol: as §1, §2, §3

[5] = Rhenium molecular probe-lipid overlay (dot blot); format: binding; set-up: key to interaction with PE (dot blot): ✓ indicates a positive interaction; x indicates no interaction; details: for interaction with PE (dot blot): 10 μM probe, 50 μM lipid on PVDF membrane; for affinity towards phosphatidylethanolamine (PE), in words: FIG. 7 / FIG. 8
Protocol: as §1, §2, §3

[6] = Rhenium molecular probe-lipid overlay (dot blot); format: binding; set-up: key to interaction with Cholestrol (dot blot): ✓ indicates a positive interaction; x indicates no interaction; details: for interaction with Cholestrol (dot blot): 10 μM probe, 50 μM lipid on PVDF membrane; for affinity towards cholesterol, in words: FIG. 7 / FIG. 8
Protocol: as §1, §2, §3

[7] = Rhenium molecular probe-lipid overlay (dot blot); format: binding; set-up: key to interaction with Triglycerides (dot blot): ✓ indicates a positive interaction; x indicates no interaction; details: for interaction with Triglycerides (dot blot): 10 μM probe, 50 μM lipid on PVDF membrane; for interaction with triglycerides, in words: FIG. 7 / FIG. 8
Protocol: as §1, §2, §3

[8] = Rhenium molecular probe-lipid overlay (dot blot); format: binding; set-up: key to interaction with Lysophosphatidic acid (dot blot): ✓ indicates a positive interaction; x indicates no interaction
Protocol: as §1, §3

[9] = Rhenium molecular probe-lipid overlay (dot blot); format: binding; details: FIG. 7
Protocol: as §1, §3

[10] = Rhenium molecular probe-lipid overlay (dot blot); format: binding; details: FIG. 7
Protocol: as §1, §3

[11] = Rhenium molecular probe-lipid overlay (dot blot); format: binding; details: FIG. 7
Protocol: as §1
Lipids were dissolved in ethanol, methanol or isopropanol for loading depending on solubility. […] Imaging was performed on an Image Quant Las 4000 (GE, Sweden) luminescent image analyser, with the Rhenium molecular probe being detected by excitation at 460 nm using an epi-blue light source, and detected using an 575 nm ethidium bromide filter.

[12] = Rhenium molecular probe-lipid overlay (dot blot); format: binding; set-up: key to interaction with Cholestryl acetate (dot blot): ✓ indicates a positive interaction; x indicates no interaction
Protocol: as §1, §3

[13] = system: 3T3 L1 cells; assay: Live cell staining with rhenium molecular probes; format: cell-based; details: live samples, 10-20 μM probe
Protocol: (§4) Probes were dissolved in DMSO to obtain a stock solution with a concentration of 10 mM. Stock solutions were stored at room temperature in a dark place. Working solutions were prepared only at the time of use as the probe has reduced solubility in aqueous solutions. A Working solution was a dilution 1/1000 to 1/500 of the stock in DMSO to PBS or cell medium, and as such the percentage of DMSO used in actual cell experiments was less than 1%.
(§5) For tissues, the tissues were isolated in PBS (or other physiological media) and mounted on a coverslip. For cells, these were grown as per normal practice on coverslips.
(§6) The media was removed media and replaced with 10-20 μM solution of molecular probes in PBS (or appropriate physiological media/cell media) at a dilution of stock solution from 1/1000-1/500, for 15-30 minutes at physiologically appropriate temperature (37° C. for cell culture or 25° C. for insect larvae). […] If foetal calf serum is necessary for cell health, an increased incubation time may be necessary to obtain adequate staining.
The samples were washed for one minute in PBS. […]
Micrographs of 3T3 L1, 453 cells and CHOK1 cells and Drosophila fat body tissue stained with rhenium molecular probes, PhenCyan top, PhenPyridyl bottom are shown in FIG. 10. […] Left: confocal images; Right: fluorescence microscopy images.

[14] = system: Drosophila fat body cells; assay: Live tissue staining with rhenium molecular probes (Examples 10, 13); format: cell-based; details: live samples, 10-20 μM probe
Protocol: as §4, §5, §6
The samples were washed for one minute in PBS. If co-staining was performed, the samples were washed in PBS for 30 seconds, before incubating with counterstain.
Tissues were mounted in optical coupling gel, such as carbomer-940 (Snowdrift farm, Tucson, USA) based gel to prevent dehydration prior to imaging and maintain tissue integrate (Rothstein, E. C., Nauman, M., Chesnick S., Balaban R. S., 2006, Multi-photon excitation microscopy in intact animals Journal of Microscopy 222, 58, 64). For cells, the coverslip was mounted in PBS for immediate imaging.
Samples were imaged immediately following staining.
Rhenium molecular probes were? excited at 800-830 nm using a two-photon pulse laser or 405 steady state laser and detection in the range of 490-670 nm, with an emission maxima at around 570.
Micrographs of 3T3 L1, 453 cells and CHOK1 cells and Drosophila fat body tissue stained with rhenium molecular probes, PhenCyan top, PhenPyridyl bottom are shown in FIG. 10. […] Left: confocal images; Right: fluorescence microscopy images. […]

[15] = 10 μM probe, 50 μM lipid on PVDF membrane

| Molecule | interaction with Sphingomyline (dot blot) [2] | affinity towards sphingomyelin, in words [2] | interaction with Sphingosine (dot blot) [3] | affinity towards sphingosine, in words [3] | interaction with GM1 (dot blot) [4] | affinity towards monosialotetrahexosylganglioside (GM1), in words [4] | interaction with PE (dot blot) [5] | affinity towards phosphatidylethanolamine (PE), in words [5] | interaction with Cholestrol (dot blot) [6] | affinity towards cholesterol, in words [6] | interaction with Triglycerides (dot blot) [7] | interaction with triglycerides, in words [7] | other results |
| --- | --- | --- | --- | --- | --- | --- | --- | --- | --- | --- | --- | --- | --- |
| Cc1ccc(C)c(N=Nc2cc(C)c(N=Nc3c(O)ccc4ccccc34)cc2C)c1 [oil red, reference compound] |  |  |  |  |  |  |  |  |  |  |  |  | colocalisation of staining with Atg8a-GFP [1]: did not appear to colocalise |
| facial-Tricarbonyl (η^1(N2)-5- cyanophen-4′-yl tetrazolato) η^2-2,2′- bipyridine Rhenium(I) [BiphenCyano] | ✓ | varying affinity | ✓ | varying affinity | ✓ | varying affinity | ✓ | varying affinity | ✓ | varying affinity | x |  |  |
| O=[C]=[Re](=[C]=O)(=[C]=O)[n]1nnc(-c2cccnc2)n1.c1cnc2c(c1)ccc1cccnc12 [PhenPyridyl, Triscarbonyl phenanthroline (3-pyridyltetrazolato)Rhenium(I)] | ✓ | some affinity |  | some affinity | ✓ | some affinity | ✓ | some affinity |  | some affinity |  | no interaction detected | interaction with Lysophosphatidic acid (dot blot) [8, 15]: ✓; affinity towards lysophosphatidic acid, in words ([8]; FIG. 7): some affinity; affinity towards progesterone, in words [9]: some affinity; interaction with ceramide, in words [10]: no interaction detected; interaction with fatty acid (palmitic acid), in words [11]: no interaction detected; interaction with Cholestryl acetate (dot blot) [12, 15]: x; interaction with cholesterol ester (cholesteryl acetate), in words ([12]; FIG. 7): no interaction detected; staining pattern in 3T3 L1 cells [13]: limited to no lipid droplet staining; staining pattern in Drosophila fat body cells [14]: limited to no lipid droplet staining |
| COC(=O)c1ccc(-c2nn[n]([Re](=[C]=O)(=[C]=O)=[C]=O)n2)cc1.c1cnc2c(c1)ccc1cccnc12 [PhenEster] | ✓ | varying affinity | ✓ | varying affinity | ✓ | varying affinity | ✓ | varying affinity | ✓ | varying affinity | ✓ | appeared to interact |  |
| facial-Tricarbonyl (η^1(N2)-5-(methyl bcnzoate-4′-yl tetrazolato) η^2-2,2′- bipyridine Rhenium(I) [BiphenEster] | ✓ | varying affinity |  | varying affinity | ✓ | varying affinity | ✓ | varying affinity |  | varying affinity | ✓ | appeared to interact |  |
